Experimental data published in publication PMC8040948 (Journal of medicinal chemistry, 2020).
Values after ≈ are worked out from the molar mass of the structure shown. “Also recorded” adds a separate entry of the source. Like-named read-outs stand apart in the source and are kept apart here.

Legend:
[1] = tested on: 46 receptors, transporters, and ion channels; details: non-P2YR off-target screen; ref [8],[9]; cited from earlier work
other P2YRs = details: ref [8],[17]; cited from earlier work
ASP/OVA-sensitized mice = test: Ovalbumin/Aspergillus protease mouse model of allergic asthma, BALF cell counts; details: 10 mg/kg ip 30 min prior to allergen challenge, BALF 2 days post-challenge
δ-opioid (DOR) receptor = δ-opioid (DOR) receptor (Homo sapiens, UniProt P41143); test: PDSP off-target binding, DOR
Sequence of δ-opioid (DOR) receptor (P41143 whole entry): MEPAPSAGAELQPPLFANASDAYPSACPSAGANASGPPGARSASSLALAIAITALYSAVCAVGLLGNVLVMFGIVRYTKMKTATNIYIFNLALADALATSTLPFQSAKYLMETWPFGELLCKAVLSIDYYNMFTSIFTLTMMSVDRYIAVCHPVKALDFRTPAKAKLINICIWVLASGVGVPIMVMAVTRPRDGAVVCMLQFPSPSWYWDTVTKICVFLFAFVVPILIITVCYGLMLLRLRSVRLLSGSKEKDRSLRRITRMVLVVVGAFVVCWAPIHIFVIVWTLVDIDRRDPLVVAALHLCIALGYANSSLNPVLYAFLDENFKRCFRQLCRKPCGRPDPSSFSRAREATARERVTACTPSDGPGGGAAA

CB1 cannabinoid receptor = CB1 cannabinoid receptor (Homo sapiens, UniProt P21554); test: PDSP functional agonist/antagonist assay, CB1; assay type: cell-based
Sequence of CB1 cannabinoid receptor (P21554 whole entry): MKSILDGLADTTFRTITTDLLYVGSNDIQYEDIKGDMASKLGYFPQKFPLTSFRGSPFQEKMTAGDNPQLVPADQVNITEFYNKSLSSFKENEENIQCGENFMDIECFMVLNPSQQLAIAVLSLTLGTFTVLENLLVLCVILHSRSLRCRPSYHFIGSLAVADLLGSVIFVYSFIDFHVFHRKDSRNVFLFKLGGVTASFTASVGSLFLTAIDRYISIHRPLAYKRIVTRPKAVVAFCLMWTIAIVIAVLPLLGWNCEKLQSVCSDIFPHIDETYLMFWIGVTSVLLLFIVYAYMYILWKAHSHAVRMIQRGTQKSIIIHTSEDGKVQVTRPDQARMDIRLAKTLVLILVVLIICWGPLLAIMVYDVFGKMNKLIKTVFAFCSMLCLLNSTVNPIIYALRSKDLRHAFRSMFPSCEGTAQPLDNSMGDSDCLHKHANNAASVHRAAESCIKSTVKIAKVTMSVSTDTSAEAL

CB2 cannabinoid receptor = CB2 cannabinoid receptor (Homo sapiens, UniProt P34972); test: PDSP functional agonist/antagonist assay, CB2; assay type: cell-based
Sequence of CB2 cannabinoid receptor (P34972 whole entry): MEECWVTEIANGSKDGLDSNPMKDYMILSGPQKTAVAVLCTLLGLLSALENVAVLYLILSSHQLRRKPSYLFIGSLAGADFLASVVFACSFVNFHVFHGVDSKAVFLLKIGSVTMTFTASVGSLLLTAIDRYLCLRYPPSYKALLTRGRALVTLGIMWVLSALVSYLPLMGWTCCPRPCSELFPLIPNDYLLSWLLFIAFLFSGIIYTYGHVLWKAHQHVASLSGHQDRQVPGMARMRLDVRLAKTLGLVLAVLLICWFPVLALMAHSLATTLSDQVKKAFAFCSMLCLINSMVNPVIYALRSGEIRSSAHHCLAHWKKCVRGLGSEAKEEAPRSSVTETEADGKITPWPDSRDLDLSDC

[2] = Plasma protein binding in three species
hP2Y14R [3] = biological target: T1, hP2Y14R (Homo sapiens, UniProt Q15391); test: Competitive binding assay of CHO-hP2Y14R cells at different pH levels
T1 sequence (Q15391 1-338): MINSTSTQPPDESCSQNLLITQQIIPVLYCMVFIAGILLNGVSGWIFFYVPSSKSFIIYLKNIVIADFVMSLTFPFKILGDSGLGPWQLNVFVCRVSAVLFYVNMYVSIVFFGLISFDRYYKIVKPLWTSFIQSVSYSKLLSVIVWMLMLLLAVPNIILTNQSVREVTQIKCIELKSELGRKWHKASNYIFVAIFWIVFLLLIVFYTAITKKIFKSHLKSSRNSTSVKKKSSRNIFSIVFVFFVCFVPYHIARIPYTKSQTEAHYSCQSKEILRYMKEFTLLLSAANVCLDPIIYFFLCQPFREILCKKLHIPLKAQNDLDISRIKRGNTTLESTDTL

[4] = Aqueous solubility, pION method
[5] = Pharmacokinetics in the rat, ip and iv
[6] = Observed solubility in water, DMSO or aqueous DMSO; details: for solubility in DMSO at 1 mM: as a zwitterion, 1 mM in DMSO
mP2Y14R [7] = biological target: T2, mP2Y14R (Mus musculus, UniProt Q9ESG6); details: mP2Y14R-expressing HEK293 cells, 1 μM, fluorescence micrographs; ref [12]; cited from earlier work
T2 sequence (Q9ESG6 1-338): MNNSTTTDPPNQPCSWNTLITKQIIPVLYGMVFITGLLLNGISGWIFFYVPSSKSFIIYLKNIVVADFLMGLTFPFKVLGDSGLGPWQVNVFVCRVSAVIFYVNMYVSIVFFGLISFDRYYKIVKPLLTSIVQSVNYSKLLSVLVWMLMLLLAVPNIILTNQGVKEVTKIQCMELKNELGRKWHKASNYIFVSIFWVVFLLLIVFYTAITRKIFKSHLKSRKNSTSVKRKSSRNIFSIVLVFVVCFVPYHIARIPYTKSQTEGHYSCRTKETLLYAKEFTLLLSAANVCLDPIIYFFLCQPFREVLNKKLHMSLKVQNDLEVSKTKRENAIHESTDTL

[8] = tested on: CCI of the sciatic nerve in adult male ICR mice; details: mouse, 10 μmol/kg, ip; ref Mufti et al.[12]; cited from earlier work
hP2Y14R [9] = biological target: T1, hP2Y14R; assay type: binding; details: for fold lower hP2Y14R affinity than 22: relative to reference 22; for fold lower hP2Y14R affinity than 2: relative to reference triazole 2
[10] = Relative lipophilicity from RP-HPLC retention time; assay type: physicochemical; details: RP-HPLC retention time (C18), 10 to 100% acetonitrile in 10 mM triethylammonium acetate
[11] = tested on: CCI of the sciatic nerve in adult male ICR mice; test: Chronic constriction injury; details: mouse, 10 μmol/kg, ip
mP2Y14R [12] = biological target: T2, mP2Y14R; details: species comparison

In the case of `O=C(O)c1cc(-c2ccc(C3CCNCC3)cc2)cc(-n2cc(-c3ccc(C(F)(F)F)cc3)nn2)c1` [Compound 2, reference compound], the off-target interactions [1] is given as “no detected off-target interactions”, the “activity at other P2YRs” value (other P2YRs) is given as “inactive” and the “effect on eosinophilic airway inflammation” value (ASP/OVA-sensitized mice) is given as “inactive”.
Compound `NCCCNC(=O)c1ccc(-c2cc(C(=O)O)cc(-c3cn(-c4ccc(C(F)(F)F)cc4)nn3)c2)s1` [Compound 26, 3-(5-((3-Aminopropyl)carbamoyl)thiophen-2-yl)-5-(1-(4-(trifluoromethyl)phenyl)-1H-1,2,3-triazol-4-yl)benzoic Acid] has a Ki (δ-opioid (DOR) receptor) of 2960 nM.
In the case of `O=C(O)c1cc(-c2ccc(C3CCNCC3)cc2)cc(-c2cn(-c3ccc(C(F)(F)F)cc3)nn2)c1` [Compound 25, 4′-(Piperidin-4-yl)-5-(1-(4-(trifluoromethyl)phenyl)-1H-1,2,3-triazol-4-yl)-[1,1′-biphenyl]-3-carboxylic Acid], the IC50 (CB1 cannabinoid receptor) is reported as greater than 10 µM, the IC50 (CB2 cannabinoid receptor) is reported as greater than 10 µM and the plasma protein binding [2] is reported as “high”.
In the case of `O=C(O)c1cc(-c2ccc(C34CCN(CC3)CC4)cc2)c2ccc(-c3ccc(C(F)(F)F)cc3)cc2c1` [Compound 17, 4-(4-(Quinuclidin-4-yl)phenyl)-7-(4-(trifluoromethyl)phenyl)-2-naphthoic Acid], the IC50 (hP2Y14R [3]) is reported as 30.8 ± 2.2 nM, the solubility ([4]; pH 4, aqueous solubility (pH 4.0, μg/mL), Table 5, pH 4.0, mean ± SD, pION method) is reported as 14.3 ± 0.5 µg/mL (≈ 28.5 µM) and the solubility ([4]; pH 7.4, aqueous solubility (pH 7.4, μg/mL), Table 5, pH 7.4, mean ± SD, pION method) is reported as 0.44 ± 0.06 µg/mL (≈ 0.877 µM). The “time at which maximal plasma concentration was reached” value [5] was 3 to 4 h, the “plasma concentration at the 12 h time point” value ([5]; highest dose (10 mg/kg), 12 h) was 200 to 400 ng/kg and the plasma protein binding [2] was “high”. For the same compound, the solubility [6] was no less than 1000 µg/mL, the “solubility in DMSO at 1 mM” value [6] was “readily soluble” and the “effect on eosinophilic airway inflammation” value (ASP/OVA-sensitized mice) was “protected”.
In the case of `O=C(O)c1cc(-c2ccc(C3CCNCC3)cc2)c2ccc(-c3ccc(C(F)(F)F)cc3)cc2c1` [Compound 1, 4-[4-(4-piperidinyl)-phenyl]-7-[4-(trifluoromethyl)phenyl]-2-naphthalenecarboxylic acid, reference compound], the IC50 (CB1 cannabinoid receptor) is listed as greater than 10 µM, the IC50 (CB2 cannabinoid receptor) is listed as greater than 10 µM and the “inhibition of intact cell binding of 36” value (mP2Y14R [7]) is listed as “almost completely inhibited”. For the same compound, the “efficacy in CCI model” value [8] was “effective”, the “solubility in DMSO at 1 mM” value [6] was “failed to dissolve” and the “effect on eosinophilic airway inflammation” value (ASP/OVA-sensitized mice) was “protected; also recorded: strongly attenuated eosinophilic airway inflammation”.
In the case of `NC(=O)c1ccc(-c2cc(NC(=O)c3ccc(C(F)(F)F)cc3)cc(C(=O)O)c2)cc1` [Compound 27, 4′-Carbamoyl-5-(4-(trifluoromethyl)benzamido)-[1,1′-biphenyl]-3-carboxylic Acid], the “fold lower hP2Y14R affinity than 22” value (hP2Y14R [9]) is reported as 11 fold.
Compound `O=C(O)c1cc(NC(=O)C23C4C5C2C2C3C4C52CO)cc(-c2ccc(C3CCNCC3)cc2)c1` (stereo not drawn) [Compound 28, 5-(4-(Hydroxymethyl)cubane-1-carboxamido)-4′-(piperidin-4-yl)-[1,1′-biphenyl]-3-carboxylic Acid] has an IC50 (hP2Y14R [9]; IC50 (μM), Table 1B, cells that print only footnote mark c) greater than 100 µM and an IC50 (hP2Y14R [9]; IC50 at hP2Y14R) greater than 100 µM.
In the case of `NCCCNC(=O)c1ccc(-c2cc(C(=O)O)cc(-n3cc(-c4ccc(C(F)(F)F)cc4)nn3)c2)s1` [Compound 23, reference compound], the plasma protein binding [2] is reported as “high” and the “effect on eosinophilic airway inflammation” value (ASP/OVA-sensitized mice) is reported as “protected”.
In the case of `O=C(O)c1cc(-c2ccc(C34CCNCC3C4(F)F)cc2)cc(-n2cc(-c3ccc(C(F)(F)F)cc3)nn2)c1` (stereo not drawn) [Compound 20, 4′-(7,7-Difluoro-3-azabicyclo[4.1.0]heptan-6-yl)-5-(4-(4-(trifluoromethyl)phenyl)-1H-1,2,3-triazol-1-yl)-[1,1′-biphenyl]-3-carboxylic Acid], the “fold lower hP2Y14R affinity than 2” value (hP2Y14R [9]) is reported as 20 fold.
In the case of `C[N+]12CCC(c3ccc(-c4cc(C(=O)O)cc5cc(-c6ccc(C(F)(F)F)cc6)ccc45)cc3)(CC1)CC2` [Compound 21, 4-(4-(1-Methylquinuclidin-1-ium-4-yl)phenyl)-7-(4-(trifluoromethyl)phenyl)-2-naphthoate], the plasma protein binding [2] is reported as “high”.
With `NCCOCCOCCOCCOCCOCCOCCC(=O)N1CCC(c2ccc(-c3cc(C(=O)O)cc4cc(-c5ccc(C(F)(F)F)cc5)ccc34)cc2)CC1` [Compound 12, 4-(4-(1-(1-Amino-3,6,9,12,15,18-hexaoxahenicosan-21-oyl)piperidin-4-yl)phenyl)-7-(4-(trifluoromethyl)phenyl)-2-naphthoic Acid] the IC50 (hP2Y14R [9]; hP2Y14R, IC50 (nM), Table 2, hP2Y14R-CHO cells, values from Tables 1A and 1B) was 0.963 ± 0.417 µM, the “lipophilicity (Δk), relative to 1” value [10] was 0.71 ± 0.03 and the solubility ([4]; pH 4) was 8.02 ± 1.01 µg/mL (≈ 9.89 µM). The solubility ([4]; pH 7.4) was 7.16 ± 1.16 µg/mL (≈ 8.83 µM), the “fold greater aqueous solubility than 1” value ([4]; pH 7.4, relative to 1) was roughly 20 fold and the plasma protein binding [2] was “high”. For the same compound, the solubility ([6]; water) was no less than 150 mM, the “effect on eosinophilic airway inflammation” value (ASP/OVA-sensitized mice) was “inactive” and the “effect on the hind paw response contralateral to the injury” value [11] was “No effect”. For the same compound, the “time of peak protection post-injection” value [11] was 1 to 2 h, the “reversal of CCI-induced mechano-allodynia” value ([11]; 7 days post-CCI, ipsilateral hind paw) was “reduced chronic pain; also recorded: fully efficacious” and the “fold greater affinity at the mouse homologue than at the hP2Y14R” value (mP2Y14R [12]) was 2 fold.
For `C#CCCCCN1CCC(c2ccc(-c3cc(C(=O)O)cc4cc(-c5ccc(C(F)(F)F)cc5)ccc34)cc2)CC1` [Compound 7a, 4-(4-(1-(Hex-5-yn-1-yl)piperidin-4-yl)phenyl)-7-(4-(trifluoromethyl)phenyl)-2-naphthoic Acid], the off-target interactions [1] is given as “no detected off-target interactions” and the “effect on eosinophilic airway inflammation” value (ASP/OVA-sensitized mice) is given as “protected; also recorded: highest potency of reducing eosinophil infiltration”.
For `NC(=O)c1ccc(-c2cc(C(=O)O)cc(-c3cn(-c4ccc(C(F)(F)F)cc4)nn3)c2)cc1` [Compound 24, 4′-Carbamoyl-5-(1-(4-(trifluoromethyl)phenyl)-1H-1,2,3-triazol-4-yl)-[1,1′-biphenyl]-3-carboxylic Acid], the “fold lower hP2Y14R affinity than 22” value (hP2Y14R [9]) was 6.2 fold.
For `CC(=O)N1CCC(c2ccc(-c3cc(C(=O)O)cc4cc(-c5ccc(C(F)(F)F)cc5)ccc34)cc2)CC1` [Compound 8, 4-(4-(1-(Acetyl)piperidin-4-yl)phenyl)-7-(4-(trifluoromethyl)phenyl)-2-naphthoic Acid], the “efficacy in CCI model” value [8] is listed as “effective”.
With `O=C(O)c1cc(-c2ccc(C3CCNCC3)cc2)c2nc(-c3ccc(C(F)(F)F)cc3)[nH]c2c1` [Compound 35, 4-(4-(Piperidin-4-yl)phenyl)-2-(4-(trifluoromethyl)phenyl)-1H-benzo[d]imidazole-6-carboxylic Acid] the IC50 (hP2Y14R [9]; IC50 at hP2Y14R) was greater than 100 µM.
In the case of `CCCN1CCC(c2ccc(-c3cc(C(=O)O)cc4cc(-c5ccc(C(F)(F)F)cc5)ccc34)cc2)CC1` [Compound 6b, 4-(4-(1-Propylpiperidin-4-yl)phenyl)-7-(4-(trifluoromethyl)phenyl)-2-naphthoic Acid], the off-target interactions [1] is listed as “no detected off-target interactions”.
With `O=C(O)c1cc(-c2ccc(C34CCNCC3C4)cc2)cc(-n2cc(-c3ccc(C(F)(F)F)cc3)nn2)c1` (stereo not drawn) [Compound 19, 4′-(3-Azabicyclo[4.1.0]heptan-6-yl)-5-(4-(4-(trifluoromethyl)phenyl)-1H-1,2,3-triazol-1-yl)-[1,1′-biphenyl]-3-carboxylic Acid] the “fold lower hP2Y14R affinity than 2” value (hP2Y14R [9]) was 11 fold.
